This note sets out measurements from patent publication US20040176274A1, “Analgesic methods using endothelin receptor ligands” (priority 2001, published 2004).

Values joined by “and” are separate entries in the source; they are usually repeats but may differ in a detail not shown here. Equal values may be shown once. Read-outs that look alike come from different tables or passages of the source. *1 amine or outer side, *2 acyl side, *3 side chain or, on linkers, in order; H or OH if unused. Where no end group is shown, it is not given here. Suc = O=C(CCC(=O)[*:2])[*:1]

Series [1] has as its system ET-1-induced pain in the rat plantar hindpaw. It is filed as in vivo. An excerpt: These examples are provided to illustrate the invention and should not be construed as limiting. ETA and ETB Receptors Mediate ET-1-induced Pain in the Rat Plantar Hindpaw An ET-1 animal model of acute pain was used to investigate the signaling pathways involved in endothelin receptor-mediated nociception. In this model system, acute pain was induced under sevoflurane anesthesia by subcutaneous ET-1 injection into the rat plantar hindpaw after 40 seconds of limb cooling. Injections were given either as a single 20 μl bolus for single compound or co-administration studies, or as two 10 μl injections separated by 1-2 minutes for pre-treatment studies, and were delivered into the mid plantar paw approximately 1 cm distal to the heel. Repetitive and spontaneous flinching of the ipsilateral hindpaw were counted in 5 minute blocks, beginning 5 minutes after ET-1 injection, for 75 minutes. […] Data was reported as the mean±s.e.m.

For series [2], the system named is wild-type control mice. Kind of series: ET-1 pain behavior (biting and licking) in wild-type control mice. The note with it: ET-1 100 pmol s.c. mouse plantar hindpaw, 30 minutes. It is filed as in vivo. Here is the method:
(§1) The duration of biting and licking events was used as a measure of pain responsiveness following subcutaneous administration of ET-1(100 pmol) into the mouse plantar hindpaw. The duration of these events was assessed in five minute periods for 30 minutes after ET-1 injection.

Series [3] concerns sciatic nerve C-fibers. Kind of series: Electrophysiological recording of spike activity in nociceptive C-fibers after plantar hindpaw injection. The note with it: ET-1 2 nmoles, IRL-1620 2 nmoles; s.c. plantar hindpaw injection. It is filed as in vivo, rat. From the text:
FIG. 5 is a representative series of electrophysiological recordings of C-fiber activity following subcutaneous plantar hindpaw injections of (A) ET-1 alone, (B) ET-1 and IRL-1620, and (C) ET-1, IRL-1620, and naloxone. The arrow in (A) indicates the time of ET-1 injection. The first and second arrows in (B) indicate the time of IRL-1620 and IRL-1620/ET-1 injections, respectively. The first and second arrows in (C) indicate the time of IRL-1620/naloxone and ET-1/IRL-1620/naloxone injections, respectively.
In order to confirm that ETB receptor activation inhibits the ET-1-induced pain response and that the inhibition is mediated through an opioid-sensitive mechanism, the spike response of IRL-1620 alone, and in combination with naloxone, were studied in nociceptive C-fibers. Spike activity was recorded in sciatic nerve C-fibers from twelve animals following subcutaneous plantar hindpaw injections of ET-1. The mean and maximum response frequencies following injection of ET-1 alone (2 nmoles) are 0.32±0.07 imp/s and 4.17+0.17 imp/s, respectively.

Series [4] deals with GIRK2 knockout mice. Kind of series: ET-1 pain behavior (biting and licking) in GIRK2 knockout mice. The series is classed as in vivo. The note with it: ET-1 100 pmol s.c. mouse plantar hindpaw, 30 minutes. The protocol:
as §1

For series [5], the system named is cultured adult human primary keratinocytes. Nature of the series: β-endorphin release from cultured keratinocytes (radioimmunoassay). The series is classed as cell-based. Here is the method: Cultured adult human primary keratinocytes, obtained during facelift procedures, were used to confirm that keratinocytes are the source of the extracellular β-endorphin that mediates ETB receptor-induced analgesia. Cultured keratinocytes were transferred to PBS and incubated in the presence of either 10 or 200 nM IRL-1620 for thirty or sixty minutes. Subsequently, the β-endorphin concentration in the PBS was measured by radioimmunoassay. In the absence of IRL-1620, the basal level of β-endorphin was 1.76±0.08 μg/ml. […] The intracellular concentration of β-endorphin in similarly treated cultured keratinocytes was 108±48 pg β-endorphin per 10^5 cells.

[6] abbreviates: entire 75 minute observation period, dosages ET-1 2 nmol, BQ-788 60 nmol, IRL-1620 2 nmol, naloxone 55 nmol, tertiapin 20 pmol, mean ± s.e.m.
Where [7] appears, read: s.c. rat plantar hindpaw, dosages ET-1 2 nmol, BQ-788 60 nmol, IRL-1620 2 nmol, naloxone 55 nmol, tertiapin 20 pmol, mean ± s.e.m.
[8] abbreviates: without ET-1, BQ-788 60 nmol bolus or 2 x 30 nmol, naloxone 55 nmol, tertiapin 20 pmol.
[9] abbreviates: 0.5 μg CL prior to ET-1 (2 nmol), 75 minute observation period, ET-1 line = control.
The mark [10] stands for this setting: 0.5 μg CL s.c. two minutes prior to ET-1 (2 nmol), ET-1 line = control.
Where [11] appears, read: 0.5 μg CL, or equal volume of water (ET-1 + IRL-1620 line), prior to co-administration of ET-1 (2 nmol) and IRL-1620 (2 nmol).
[12] abbreviates: CTOP 18.8 nmoles co-injected with ET-1 and IRL-1620.
Setting [13] is: ET-1 4 nmol, s.c. rat plantar hindpaw.
The mark [14] stands for this setting: ET-1 6 nmol, s.c. rat plantar hindpaw.
Setting [15] is: IRL-1620 4 nmol, alone or prior and co-administered with ET-1 2 nmol.

Take `CCCC[C@@H](NC(=O)[C@@H](Cc1cn(C(=O)OC)c2ccccc12)NC(=O)[C@H](CC(C)(C)C)NC(=O)N1[C@H](C)CCC[C@@H]1C)C(=O)O` (relative stereo) [BQ-788, N-cis-2,6-dimethylpiperidinocarbonyl-L-gamma-methylleucyl-D-1-methoxycarbonyltryptophanyl-D-Nle]: the “Total Number of Flinches” value in series [1] (setting [6]) is recorded as 17.3 ± 2.3 flinches. Further, in series [1] (setting [7]), the “MFF (maximal flinch frequency)” value is 5.8 ± 0.9 flinches per 5 minutes and the “Time to MFF” value amounted to 32.5 ± 10.2 min. Further, the “flinching behavior when administered alone compared to PBS control” value (“flinching behavior … compared to PBS control” below) in series [1] (setting [8]) was “did not result in altered flinching behaviors”.

Take `COc1ccc2c(c[n+](C)c3c4cc5c(cc4ccc23)OCO5)c1OC` [CL, Chelerythrine chloride]: in series [1] (setting [9]), the “Total Number of Flinches” value came out at 253±7. Besides, in series [1] (setting [10]), the “MFF (maximal flinch frequency)” value came to 46±3 flinches per five minutes. Also, in series [1] (setting [11]), the “MFF (maximal flinch frequency)” value is listed as 39±3 flinches per five minutes and the total flinches was 207±10. In addition, the “toxicity” value in series [1] (0.8 μg CL s.c. rat plantar hindpaw) is given as “showed signs of toxicity”.

Regarding `C=CCN1CC[C@]23c4c5ccc(O)c4O[C@H]2C(=O)CC[C@@]3(O)[C@H]1C5` [Naloxone, naloxone], the “Total Number of Flinches” value in series [1] (setting [6]) was found to be 16.1 ± 4.1 flinches. Besides, in series [1] (setting [7]), the “MFF (maximal flinch frequency)” value stood at 3.3 ± 0.8 flinches per 5 minutes and the “Time to MFF” value is 28.6 ± 5.6 min. Further, the “flinching behavior … compared to PBS control” value in series [1] (setting [8]) is reported as “did not induce flinching behavior that was different from PBS control”.

For the molecule `Oc1ccc2c3c1O[C@H]1c4[nH]c5ccccc5c4C[C@@]4(O)[C@@H](C2)N(CC2CC2)CC[C@]314` [naltrindole], the “effect on flinching behavior” value in series [1] (naltrindole with ET-1 alone or the ET-1/IRL-1620 combination) is given as “did not affect flinching behavior”.

Take `Oc1ccc2c3c1O[C@H]1c4[nH]c5c(c4C[C@@]4(O)[C@@H](C2)N(CC2CC2)CC[C@]314)C[C@@]1(O)[C@H]2Cc3ccc(O)c4c3[C@@]1(CCN2CC1CC1)[C@H]5O4` [nor-BNI]: the “effect on flinching caused by ET-1 administration alone” value in series [1] (nor-BNI 3.4 mM) was “partially enhanced the flinching”.

For “Ala-Leu-Cys-Asn-Cys-Asn-Arg-Ile-Ile-Ile-Pro-His-Met-Cys-Trp-Lys-Lys-Cys-Gly-Lys-Lys (ALCNCNRIIIPHMCWKKCGKK) [Tertiapin, GIRK channel antagonist]”, in series [1] (setting [6]), the “Total Number of Flinches” value is 17 ± 6 flinches. In addition, in series [1] (setting [8]), the “flinching behavior … compared to PBS control” value was “did not induce flinching behavior that was different from naloxone or PBS control”.

For the molecule CTOP, in series [1] (setting [12]), the “MFF (maximal flinch frequency)” value is on record as 31±4 flinches/5 minutes and the “effect on IRL-1620 analgesia” value was “blocked the analgesic effects of IRL-1620”.

For “Cys-Ser-Cys-Ser-Ser-Leu-Met-Asp-Lys-Glu-Cys-Val-Tyr-Phe-Cys-His-Leu-Asp-Ile-Ile-Trp [ET-1]”, the “total duration of biting and licking behavior” value was 152 ± 18 s in series [2] and 218 ± 18 s in series [4]. Moreover, the “Total Number of Flinches” value in series [1] (setting [9]) is 153±11; in series [1] (ET-1 4 nmol, entire 75 minute observation period), 178.5±29.1 flinches; in series [1] (ET-1 6 nmol, entire 75 minute observation period), 253.3 ± 66.2 flinches. Further, the “MFF (maximal flinch frequency)” value in series [1] (setting [10]) was 27±2 flinches per five minutes; in series [1] (setting [13]), 40.2±3.9 flinches per 5 minutes; in series [1] (setting [14]), 41.9±8.7 flinches per 5 minutes; in series [1] (setting [7]), 23.8±1.9 flinches per 5 minutes and 24±2 flinches per 5 minutes. Besides, the “flinching behavior returning to baseline” value in series [1] (ET-1 4 nmol) was not above 75 min. Further, in series [1] (ET-1 4 nmol), the “start of flinching after injection” value fell in the range of 10 to 20 min. Besides, the “animals with evoked ipsilateral hindpaw flinching” value in series [1] (ET-1 4 nmol, n=12) amounted to 100%. Also, the “Time to MFF” value is 40.8 ± 2.8 min in series [1] (setting [13]) and 22.5 ± 4.1 min in series [1] (setting [14]). The “maximum response frequency of C-fiber spike activity” value in series [3] is 4.17 ± 0.17 imp/s. The “mean response frequency of C-fiber spike activity” value in series [3] was 0.32±0.07 imp/s.

In the case of “Suc-Asp-Glu-Glu-Ala-Val-Tyr-Phe-Ala-His-Leu-Asp-Ile-Ile-Trp (Suc-DEEAVYFAHLDIIW) [IRL-1620, ETB receptor agonist]”, the “change in extracellular β-endorphin” value in series [5] (10 nM IRL-1620, 60 minute incubation) is listed as “did not result in a significant change”. Besides, in series [5] (200 nM IRL-1620 in PBS, basal level 1.76±0.08 μg/ml), the “extracellular β-endorphin concentration” value stood at 10.5 ± 3 µg/mL. Also, in series [5] (200 nM IRL-1620 versus basal), the “increase in extracellular β-endorphin” value is on record as 5 fold. Besides, the “intracellular concentration of β-endorphin” value in series [5] (similarly treated cultured keratinocytes) is recorded as 108±48 pg β-endorphin per 10^5 cells. Moreover, the “flinching behavior … compared to PBS control” value in series [1] (IRL-1620 4 nmol alone) was “small but significant increase in flinching behavior”. Further, in series [1] (setting [15]), the “MFF (maximal flinch frequency)” value was 4.7 ± 0.6 flinches per 5 minutes and the “Time to MFF” value came to 33.3 ± 6.1 min. Besides, the “Total Number of Flinches” value in series [1] (IRL-1620 4 nmol, alone or with ET-1 2 nmol, 75 minutes) was 22.1 ± 3.1 flinches.
